Test results as given in EPA's ToxRefDB 2.

How the values were obtained:
mouse [1] = details: Subchronic oral toxicity in rodents, B6C3F1, Water, dose end: 6 month, group: systemic
rat [2] = details: Prenatal developmental toxicity study, other, Oral, Water, dose end: 20 GD, group: maternal
rabbit [3] = details: Prenatal developmental toxicity study; new zealand white; Oral; Water; dose end: 19 GD; group: maternal; systemic / in life observation / body weight / body weight gain + systemic / in life observation / food consumption / food consumption + …
rat [4] = details: Combined chronic toxicity/carcinogenicity; fischer; Oral; Water; dose end: 103 week; group: systemic; systemic / clinical chemistry / flouride / fluoride + systemic / in life observation / clinical signs / tooth-mottling + systemic / in life …
mouse [5] = details: Sub-acute repeat dose toxicity, b6c3f1, Oral, Water, dose end: 14 day, group: systemic
rat [6] = details: Prenatal developmental toxicity study; other; Oral; Water; dose end: 15 GD; group: maternal; systemic / in life observation / body weight / body weight gain + systemic / in life observation / water consumption / water consumption
rat [7] = details: Carcinogenicity, sprague dawley, Oral, Feed, dose end: 24 month, group: systemic
rat [8] = details: Subchronic oral toxicity in rodents, fischer, Water, dose end: 6 month, group: systemic
mouse [9] = details: Combined chronic toxicity/carcinogenicity; b6c3f1; Oral; Water; dose end: 103 week; group: systemic; systemic / clinical chemistry / flouride / fluoride + systemic / in life observation / clinical signs / tooth-attrition + systemic / in life…
rat [10] = details: Multigenerational reproductive toxicity study, CD CRL:CD-BR, Oral, Water, dose end: 2 generation
rat [11] = details: Sub-acute repeat dose toxicity, fischer, Oral, Water, dose end: 14 day, group: systemic
rat [12] = details: Prenatal developmental toxicity study, sprague dawley, Oral, Gavage/Intubation, dose end: 15 GD
rat [13] = details: Multigenerational reproductive toxicity study; sprague dawley; Oral; Gavage/Intubation; dose end: 2 generation; group: parental; systemic / organ weight / liver / nos
rat [14] = details: Sub-acute repeat dose toxicity, fischer, Oral, Gavage/Intubation, dose end: 14 day, group: systemic
rat [15] = details: Prenatal developmental toxicity study, sprague dawley, Oral, Gavage/Intubation, dose end: 15 GD; remark: listed apart in the source
mouse [16] = details: Sub-acute repeat dose toxicity, b6c3f1, Oral, Gavage/Intubation, dose end: 14 day, group: systemic
rabbit [17] = details: Prenatal developmental toxicity study, new zealand white, Oral, Gavage/Intubation, dose end: 19 GD
rat [18] = details: Subchronic oral toxicity in rodents, fischer, Gavage/Intubation, dose end: 13 week, group: systemic
mouse [19] = details: Subchronic oral toxicity in rodents, b6c3f1, Gavage/Intubation, dose end: 13 week, group: systemic
rat [20] = details: Sub-acute dermal toxicity, sprague dawley, Topical, dose end: 28 day, group: systemic
dog = details: Carcinogenicity; beagle; Oral; Capsule; dose end: 109 month; group: systemic; systemic / pathology microscopic / urinary bladder / carcinoma + systemic / clinical chemistry / alanine aminotransferase (alt/sgpt) / …
rat [21] = details: Developmental neurotoxicity study; long evans; Inhalation; Whole-Body; dose end: 160 PND; group: cannot be grouped; systemic / in life observation / body weight / body weight + developmental / developmental landmark / vaginal opening / vaginal opening + …
rat [22] = details: Developmental neurotoxicity study, wistar, Oral, Water, dose end: 45 PND, group: cannot be grouped
[23] = systemic / in life observation / body weight / body weight gain
[24] = systemic / in life observation / body weight / body weight gain + systemic / in life observation / food consumption / food consumption + …
[25] = systemic / in life observation / body weight / body weight
[26] = systemic / in life observation / clinical signs / tooth-dysplasia + systemic / in life observation / clinical signs / tooth-discolored + …
[27] = systemic / organ weight / [other] / absolute + systemic / organ weight / [other] / relative to body weight + systemic / organ weight / …
[28] = systemic / pathology gross / stomach / hemorrhage + systemic / pathology gross / stomach / ulcer + systemic / pathology microscopic / …
[29] = group: offspring, systemic / in life observation / clinical signs / tooth nos
[30] = group: parental, systemic / in life observation / water consumption / water consumption + systemic / pathology microscopic / stomach / hyperkeratosis + …
[31] = systemic / in life observation / body weight / body weight + systemic / in life observation / clinical signs / dehydration + systemic / in …
[32] = group: developmental, systemic / in life observation / body weight / fetal weight
[33] = group: maternal, systemic / in life observation / body weight / body weight gain + systemic / in life observation / food consumption / food consumption
[34] = group: maternal, systemic / in life observation / body weight / body weight gain + systemic / in life observation / food consumption / food consumption + …
[35] = group: developmental, developmental / developmental malformation / bone / supernumerary + systemic / in life observation / body weight / fetal weight
[36] = group: maternal, systemic / in life observation / clinical signs / body surface staining + systemic / in life observation / clinical signs / salivation + …
[37] = systemic / in life observation / body weight / body weight + systemic / in life observation / clinical signs / fur (altered appearance) + …
[38] = group: developmental, developmental / developmental malformation / bone / absent + developmental / developmental malformation / bone / malpositioned + …
[39] = systemic / in life observation / body weight / body weight + systemic / in life observation / clinical signs / defecation (diarrhea)
[40] = systemic / pathology microscopic / liver / degeneration
[41] = systemic / pathology microscopic / liver / degeneration + systemic / in life observation / body weight / body weight + systemic / in life …
[42] = systemic / in life observation / body weight / body weight gain + systemic / in life observation / clinical signs / erythema + systemic / in…
[43] = systemic / in life observation / clinical signs / erythema + systemic / pathology microscopic / skin / edema + systemic / in life …
[44] = systemic / clinical chemistry / dopamine / dopamine + systemic / clinical chemistry / protein / protein + systemic / in life observation / …

With `[F-].[Na+]` [Sodium fluoride] the LOAEL (mouse [1]; [23]) was 30 mg/kg/day, the NOAEL (mouse [1]; systemic / in life observation / body weight / body weight gain + systemic / in life observation / clinical signs / [other] + systemic / in …) was 15 mg/kg/day and the NEL (mouse [1]; systemic / in life observation / body weight / body weight gain + systemic / pathology microscopic / bone / proliferation + systemic / in …) was 1.5 mg/kg/day. The LEL (mouse [1]; systemic / pathology microscopic / bone / proliferation) was 7.5 mg/kg/day, the LOAEL (rat [2]; [24]) was greater than 25.1 mg/kg/day and the NEL (rat [2]; [24]) was 15.6 mg/kg/day. It also gave an NOAEL (rat [2]; [24]) of no less than 25.1 mg/kg/day, an LEL (rat [2]; systemic / in life observation / water consumption / water consumption) of 24.7 mg/kg/day and an LEL (rabbit [3]) of 29 mg/kg/day. The LOAEL (rabbit [3]) was greater than 29 mg/kg/day, the NEL (rabbit [3]) was 18 mg/kg/day and the NOAEL (rabbit [3]) was no less than 29 mg/kg/day. For the same compound, the LEL (rat [4]) was 1.3 mg/kg/day, the LOAEL (rat [4]) was 1.3 mg/kg/day and the NEL (rat [4]) was less than 1.3 mg/kg/day. For the same compound, the NOAEL (rat [4]) was less than 1.3 mg/kg/day, the LOAEL (mouse [5]; [25]) was 7.5 mg/kg/day and the NOAEL (mouse [5]; [25]) was less than 7.5 mg/kg/day. The NEL (mouse [5]; systemic / in life observation / body weight / body weight + systemic / in life observation / water consumption / water consumption) was 60 mg/kg/day, the LEL (mouse [5]; systemic / in life observation / body weight / body weight + systemic / in life observation / water consumption / water consumption + …) was 120 mg/kg/day and the LEL (rat [6]) was 27 mg/kg/day. For the same compound, the LOAEL (rat [6]) was greater than 27 mg/kg/day, the NEL (rat [6]) was 18 mg/kg/day and the NOAEL (rat [6]) was no less than 27 mg/kg/day. For the same compound, the LEL (rat [7]; [26]) was 4 mg/kg/day, the NEL (rat [7]; [26]) was less than 4 mg/kg/day and the LOAEL (rat [7]; [27]) was greater than 25 mg/kg/day. For the same compound, the NOAEL (rat [7]; [27]) was no less than 25 mg/kg/day, the LOAEL (rat [8]; [28]) was 15 mg/kg/day and the NEL (rat [8]; [28]) was 1.5 mg/kg/day. It also gave an NOAEL (rat [8]; [28]) of 5 mg/kg/day, an LEL (rat [8]; systemic / pathology microscopic / stomach / hyperplasia) of 5 mg/kg/day and an LEL (mouse [9]) of 2.4 mg/kg/day. For the same compound, the LOAEL (mouse [9]) was 2.4 mg/kg/day, the NEL (mouse [9]) was less than 2.4 mg/kg/day and the NOAEL (mouse [9]) was less than 2.4 mg/kg/day. The LEL (rat [10]; [29]) was 12.5 mg/kg/day, the LOAEL (rat [10]; [29]) was greater than 12.5 mg/kg/day and the NEL (rat [10]; [29]) was 8.75 mg/kg/day. For the same compound, the NOAEL (rat [10]; [29]) was no less than 12.5 mg/kg/day, the LOAEL (rat [10]; [30]) was greater than 12.5 mg/kg/day and the NEL (rat [10]; [30]) was 1.25 mg/kg/day. It also gave an NOAEL (rat [10]; [30]) of no less than 12.5 mg/kg/day, an LEL (rat [10]; group: parental, systemic / pathology microscopic / stomach / hyperkeratosis + systemic / in life observation / water consumption / water consumption) of 5 mg/kg/day and an LOAEL (rat [11]; [25]) of 5 mg/kg/day. It also gave an LEL (rat [11]; [31]) of 20 mg/kg/day, an NEL (rat [11]; [31]) of 10 mg/kg/day and an NOAEL (rat [11]; [31]) of 2.5 mg/kg/day.
Compound `O=S(=O)([O-])[O-].OC[P+](CO)(CO)CO.OC[P+](CO)(CO)CO` [Tetrakis(hydroxymethyl)phosphonium sulfate] has an LEL (rat [12]; [32]) of 60 mg/kg/day, an LOAEL (rat [12]; [32]) of 60 mg/kg/day and an NEL (rat [12]; [32]) of 30 mg/kg/day. It also gave an NOAEL (rat [12]; [32]) of 30 mg/kg/day, an LEL (rat [12]; [33]) of 60 mg/kg/day and an LOAEL (rat [12]; [33]) of 60 mg/kg/day. For the same compound, the NEL (rat [12]; [34]) was 30 mg/kg/day, the NOAEL (rat [12]; [34]) was 30 mg/kg/day and the LEL (rat [13]) was 15 mg/kg/day. It also gave an LOAEL (rat [13]) greater than 15 mg/kg/day, an NEL (rat [13]) of 7.5 mg/kg/day and an NOAEL (rat [13]) of no less than 15 mg/kg/day. It also gave an LOAEL (rat [14]; systemic / in life observation / body weight / body weight + systemic / in life observation / body weight / body weight gain) of 25 mg/kg/day, an NOAEL (rat [14]; systemic / in life observation / body weight / body weight + systemic / in life observation / body weight / body weight gain + systemic / in…) of 12.5 mg/kg/day and an LEL (rat [14]; [23]) of 25 mg/kg/day. The NEL (rat [14]; systemic / in life observation / body weight / body weight gain + systemic / in life observation / mortality / mortality) was 12.5 mg/kg/day, the LEL (rat [15]; [35]) was 60 mg/kg/day and the LOAEL (rat [15]; [35]) was 60 mg/kg/day. For the same compound, the NEL (rat [15]; [35]) was 30 mg/kg/day, the NOAEL (rat [15]; [35]) was 30 mg/kg/day and the LEL (rat [15]; [36]) was 30 mg/kg/day. For the same compound, the LOAEL (rat [15]; [36]) was 30 mg/kg/day, the NEL (rat [15]; [36]) was 15 mg/kg/day and the NOAEL (rat [15]; [36]) was 15 mg/kg/day. For the same compound, the LEL (mouse [16]; [25]) was 25 mg/kg/day, the LOAEL (mouse [16]; [25]) was 50 mg/kg/day and the NEL (mouse [16]; [37]) was 12.5 mg/kg/day. For the same compound, the NOAEL (mouse [16]; [37]) was 25 mg/kg/day, the LEL (rabbit [17]; [38]) was 60 mg/kg/day and the LOAEL (rabbit [17]; [38]) was 60 mg/kg/day. The NEL (rabbit [17]; [38]) was 18 mg/kg/day, the NOAEL (rabbit [17]; [38]) was 18 mg/kg/day and the LOAEL (rabbit [17]; [33]) was 60 mg/kg/day. The LEL (rabbit [17]; [34]) was 60 mg/kg/day, the NEL (rabbit [17]; [34]) was 18 mg/kg/day and the NOAEL (rabbit [17]; [34]) was 18 mg/kg/day. For the same compound, the LEL (rat [18]; [39]) was 5 mg/kg/day, the NEL (rat [18]; [39]) was less than 5 mg/kg/day and the NOAEL (rat [18]; systemic / in life observation / body weight / body weight + systemic / in life observation / clinical signs / defecation (diarrhea) + …) was 20 mg/kg/day. For the same compound, the LOAEL (rat [18]; systemic / in life observation / body weight / body weight + systemic / pathology microscopic / liver / degeneration) was 40 mg/kg/day, the LEL (mouse [19]; [40]) was 20 mg/kg/day and the LOAEL (mouse [19]; [40]) was 20 mg/kg/day. The NEL (mouse [19]; [41]) was 10 mg/kg/day, the NOAEL (mouse [19]; [41]) was 10 mg/kg/day and the LOAEL (rat [20]; [42]) was greater than 500 mg/kg/day. The NOAEL (rat [20]; [42]) was no less than 500 mg/kg/day, the LEL (rat [20]; [43]) was 25 mg/kg/day and the NEL (rat [20]; [43]) was less than 25 mg/kg/day.
In the case of `Nc1ccc2ccccc2c1` [2-Naphthylamine], the LEL (dog) is reported as 18.4 mg/kg/day, the LOAEL (dog) is reported as greater than 18.4 mg/kg/day and the NEL (dog) is reported as less than 18.4 mg/kg/day. It also gave an NOAEL (dog) of no less than 18.4 mg/kg/day.
Compound `CO` [Methanol] has an LEL (rat [21]) of 6110 mg/kg/day, an LOAEL (rat [21]) greater than 6110 mg/kg/day and an NEL (rat [21]) of less than 6110 mg/kg/day. For the same compound, the NOAEL (rat [21]) was no less than 6110 mg/kg/day, the LOAEL (rat [22]; [44]) was greater than 2000 mg/kg/day and the NEL (rat [22]; [44]) was 500 mg/kg/day. It also gave an NOAEL (rat [22]; [44]) of no less than 2000 mg/kg/day and an LEL (rat [22]; systemic / clinical chemistry / protein / protein + systemic / clinical chemistry / dopamine / dopamine + systemic / in life observation / …) of 1000 mg/kg/day.
